According to the kinase profiling compilation of Christmann-Franck et al. (2016):

Columns and labels:
AAK1 (human) = AAK1 (human) (UniProt Q2M2I8)
ABL2 (human) = ABL2 (human) (UniProt P42684)
CAMK1D (human) = CAMK1D (human) (UniProt Q8IU85)
CAMK2A (human) = CAMK2A (human) (UniProt Q9UQM7)
CAMK2B (human) = CAMK2B (human) (UniProt Q13554)
CDK13 (human) = CDK13 (human) (UniProt Q14004)
CSK (human) = CSK (human) (UniProt P41240)
CSNK1A1 (human) = CSNK1A1 (human) (UniProt P48729)
CSNK1G3 (human) = CSNK1G3 (human) (UniProt Q9Y6M4)
DDR1 (human) = DDR1 (human) (UniProt Q08345)
EIF2AK4 KD1 KD2 (human) = EIF2AK4 KD1 KD2 (human) (UniProt Q9P2K8)
FES (human) = FES (human) (UniProt P07332)
HCK (human) = HCK (human) (UniProt P08631)
IKBKE (human) = IKBKE (human) (UniProt Q14164)
IRAK3 (human) = IRAK3 (human) (UniProt Q9Y616)
LIMK1 (human) = LIMK1 (human) (UniProt P53667)
LRRK2 (human) = LRRK2 (human) (UniProt Q5S007)
MAP2K1 (human) = MAP2K1 (human) (UniProt Q02750)
MAP2K1 (human), sequence (Q02750 whole entry, looked up): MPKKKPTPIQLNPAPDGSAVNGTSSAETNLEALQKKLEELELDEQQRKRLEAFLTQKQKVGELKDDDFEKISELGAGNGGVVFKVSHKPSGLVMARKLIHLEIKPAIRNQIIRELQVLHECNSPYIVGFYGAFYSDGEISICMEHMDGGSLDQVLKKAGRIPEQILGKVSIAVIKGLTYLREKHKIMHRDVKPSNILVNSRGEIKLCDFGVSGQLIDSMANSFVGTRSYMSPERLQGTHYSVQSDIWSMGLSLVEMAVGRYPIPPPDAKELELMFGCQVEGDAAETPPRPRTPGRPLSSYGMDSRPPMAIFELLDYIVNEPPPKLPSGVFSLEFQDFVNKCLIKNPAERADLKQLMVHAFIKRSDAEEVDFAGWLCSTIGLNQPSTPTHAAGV

MAP2K5 (human) = MAP2K5 (human) (UniProt Q13163)
MAP2K6 (human) = MAP2K6 (human) (UniProt P52564)
MAP2K6 (human), sequence (P52564 whole entry, looked up): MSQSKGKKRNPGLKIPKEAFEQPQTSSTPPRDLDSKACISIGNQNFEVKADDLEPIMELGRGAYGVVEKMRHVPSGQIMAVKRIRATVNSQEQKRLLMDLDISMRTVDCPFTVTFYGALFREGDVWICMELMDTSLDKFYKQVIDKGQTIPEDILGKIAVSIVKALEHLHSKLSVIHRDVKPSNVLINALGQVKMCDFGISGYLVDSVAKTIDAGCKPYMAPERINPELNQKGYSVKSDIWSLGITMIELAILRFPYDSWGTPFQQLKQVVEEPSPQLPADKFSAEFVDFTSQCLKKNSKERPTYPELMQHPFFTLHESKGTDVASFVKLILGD

MAP3K1 (human) = MAP3K1 (human) (UniProt Q13233)
MAP3K11 (human) = MAP3K11 (human) (UniProt Q16584)
MAP4K1 (human) = MAP4K1 (human) (UniProt Q92918)
MAPK14 (human) = MAPK14 (human) (UniProt Q16539)
MAPK8 (human) = MAPK8 (human) (UniProt P45983)
MAPK8 (human), sequence (P45983 whole entry, looked up): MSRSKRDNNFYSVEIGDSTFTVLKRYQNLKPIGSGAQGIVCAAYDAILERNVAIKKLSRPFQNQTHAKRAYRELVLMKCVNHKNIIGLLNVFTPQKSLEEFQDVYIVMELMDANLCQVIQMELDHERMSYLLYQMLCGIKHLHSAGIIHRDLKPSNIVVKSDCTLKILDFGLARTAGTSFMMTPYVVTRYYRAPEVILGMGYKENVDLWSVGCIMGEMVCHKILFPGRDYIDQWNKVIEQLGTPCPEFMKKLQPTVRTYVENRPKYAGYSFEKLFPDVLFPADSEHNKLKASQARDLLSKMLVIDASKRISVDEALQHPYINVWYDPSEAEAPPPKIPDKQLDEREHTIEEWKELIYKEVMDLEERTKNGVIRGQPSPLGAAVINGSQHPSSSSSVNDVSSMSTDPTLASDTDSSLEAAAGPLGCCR

MARK3 (human) = MARK3 (human) (UniProt P27448)
PIK3C2B (human) = PIK3C2B (human) (UniProt O00750)
PRKAA1 (human) = PRKAA1 (human) (UniProt Q13131)
PRKACB (human) = PRKACB (human) (UniProt P22694)
PRKCD (human) = PRKCD (human) (UniProt Q05655)
PRKD2 (human) = PRKD2 (human) (UniProt Q9BZL6)
PRKDC (human) = PRKDC (human) (UniProt P78527)
PTK2 (human) = PTK2 (human) (UniProt Q05397)
RIPK2 (human) = RIPK2 (human) (UniProt O43353)
RPS6KA3 KD1 KD2 (human) = RPS6KA3 KD1 KD2 (human) (UniProt P51812)
RPS6KA3 KD1 KD2 (human), sequence (P51812 whole entry, looked up): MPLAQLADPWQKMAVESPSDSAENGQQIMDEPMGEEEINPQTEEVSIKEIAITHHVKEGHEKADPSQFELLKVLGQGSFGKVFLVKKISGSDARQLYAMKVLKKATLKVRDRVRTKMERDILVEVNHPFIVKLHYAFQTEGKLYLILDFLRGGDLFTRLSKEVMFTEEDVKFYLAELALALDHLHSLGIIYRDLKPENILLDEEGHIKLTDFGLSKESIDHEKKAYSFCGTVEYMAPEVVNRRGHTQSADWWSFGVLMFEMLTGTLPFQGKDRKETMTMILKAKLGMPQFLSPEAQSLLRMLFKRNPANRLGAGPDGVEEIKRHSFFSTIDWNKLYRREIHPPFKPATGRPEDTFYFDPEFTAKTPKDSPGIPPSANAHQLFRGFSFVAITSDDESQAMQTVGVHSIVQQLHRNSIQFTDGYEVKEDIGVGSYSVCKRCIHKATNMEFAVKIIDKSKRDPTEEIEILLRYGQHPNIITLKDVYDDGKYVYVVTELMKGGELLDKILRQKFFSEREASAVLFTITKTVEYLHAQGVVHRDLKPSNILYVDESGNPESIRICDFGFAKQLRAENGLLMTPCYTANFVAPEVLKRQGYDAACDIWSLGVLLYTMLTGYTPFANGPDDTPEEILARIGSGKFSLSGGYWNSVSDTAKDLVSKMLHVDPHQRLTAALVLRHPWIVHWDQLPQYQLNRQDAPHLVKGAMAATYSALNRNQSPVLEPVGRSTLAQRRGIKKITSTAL

RPS6KA5 KD1 KD2 (human) = RPS6KA5 KD1 KD2 (human) (UniProt O75582)
SRC (human) = SRC (human) (UniProt P12931)
STK16 (human) = STK16 (human) (UniProt O75716)
STK16 (human), sequence (O75716 whole entry, looked up): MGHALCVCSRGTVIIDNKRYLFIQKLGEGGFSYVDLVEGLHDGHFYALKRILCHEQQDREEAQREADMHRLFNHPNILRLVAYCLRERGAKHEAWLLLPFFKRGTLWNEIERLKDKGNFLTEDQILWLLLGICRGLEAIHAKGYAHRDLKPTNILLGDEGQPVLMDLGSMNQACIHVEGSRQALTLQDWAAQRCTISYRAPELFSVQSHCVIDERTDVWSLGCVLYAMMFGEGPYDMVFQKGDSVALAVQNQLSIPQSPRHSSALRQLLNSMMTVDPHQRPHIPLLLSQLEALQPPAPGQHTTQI

SYK (human) = SYK (human) (UniProt P43405)
TESK1 (human) = TESK1 (human) (UniProt Q15569)
TGFBR2 (human) = TGFBR2 (human) (UniProt P37173)
TYK2 JH1 JH2 (human) = TYK2 JH1 JH2 (human) (UniProt P29597)
YES1 (human) = YES1 (human) (UniProt P07947)

CSK (human), sequence (P41240 whole entry, looked up): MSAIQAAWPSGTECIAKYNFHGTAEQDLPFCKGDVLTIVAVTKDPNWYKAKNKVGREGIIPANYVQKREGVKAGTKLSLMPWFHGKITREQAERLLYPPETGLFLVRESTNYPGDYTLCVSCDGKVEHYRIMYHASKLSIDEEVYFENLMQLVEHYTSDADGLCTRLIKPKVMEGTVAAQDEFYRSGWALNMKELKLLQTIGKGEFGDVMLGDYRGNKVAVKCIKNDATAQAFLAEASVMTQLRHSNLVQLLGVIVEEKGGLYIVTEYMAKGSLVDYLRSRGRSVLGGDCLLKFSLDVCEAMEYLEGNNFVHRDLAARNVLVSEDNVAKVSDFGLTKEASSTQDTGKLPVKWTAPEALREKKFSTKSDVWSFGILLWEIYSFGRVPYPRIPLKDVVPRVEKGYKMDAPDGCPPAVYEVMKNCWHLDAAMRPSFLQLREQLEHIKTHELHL
CDK13 (human), sequence (Q14004 whole entry, looked up): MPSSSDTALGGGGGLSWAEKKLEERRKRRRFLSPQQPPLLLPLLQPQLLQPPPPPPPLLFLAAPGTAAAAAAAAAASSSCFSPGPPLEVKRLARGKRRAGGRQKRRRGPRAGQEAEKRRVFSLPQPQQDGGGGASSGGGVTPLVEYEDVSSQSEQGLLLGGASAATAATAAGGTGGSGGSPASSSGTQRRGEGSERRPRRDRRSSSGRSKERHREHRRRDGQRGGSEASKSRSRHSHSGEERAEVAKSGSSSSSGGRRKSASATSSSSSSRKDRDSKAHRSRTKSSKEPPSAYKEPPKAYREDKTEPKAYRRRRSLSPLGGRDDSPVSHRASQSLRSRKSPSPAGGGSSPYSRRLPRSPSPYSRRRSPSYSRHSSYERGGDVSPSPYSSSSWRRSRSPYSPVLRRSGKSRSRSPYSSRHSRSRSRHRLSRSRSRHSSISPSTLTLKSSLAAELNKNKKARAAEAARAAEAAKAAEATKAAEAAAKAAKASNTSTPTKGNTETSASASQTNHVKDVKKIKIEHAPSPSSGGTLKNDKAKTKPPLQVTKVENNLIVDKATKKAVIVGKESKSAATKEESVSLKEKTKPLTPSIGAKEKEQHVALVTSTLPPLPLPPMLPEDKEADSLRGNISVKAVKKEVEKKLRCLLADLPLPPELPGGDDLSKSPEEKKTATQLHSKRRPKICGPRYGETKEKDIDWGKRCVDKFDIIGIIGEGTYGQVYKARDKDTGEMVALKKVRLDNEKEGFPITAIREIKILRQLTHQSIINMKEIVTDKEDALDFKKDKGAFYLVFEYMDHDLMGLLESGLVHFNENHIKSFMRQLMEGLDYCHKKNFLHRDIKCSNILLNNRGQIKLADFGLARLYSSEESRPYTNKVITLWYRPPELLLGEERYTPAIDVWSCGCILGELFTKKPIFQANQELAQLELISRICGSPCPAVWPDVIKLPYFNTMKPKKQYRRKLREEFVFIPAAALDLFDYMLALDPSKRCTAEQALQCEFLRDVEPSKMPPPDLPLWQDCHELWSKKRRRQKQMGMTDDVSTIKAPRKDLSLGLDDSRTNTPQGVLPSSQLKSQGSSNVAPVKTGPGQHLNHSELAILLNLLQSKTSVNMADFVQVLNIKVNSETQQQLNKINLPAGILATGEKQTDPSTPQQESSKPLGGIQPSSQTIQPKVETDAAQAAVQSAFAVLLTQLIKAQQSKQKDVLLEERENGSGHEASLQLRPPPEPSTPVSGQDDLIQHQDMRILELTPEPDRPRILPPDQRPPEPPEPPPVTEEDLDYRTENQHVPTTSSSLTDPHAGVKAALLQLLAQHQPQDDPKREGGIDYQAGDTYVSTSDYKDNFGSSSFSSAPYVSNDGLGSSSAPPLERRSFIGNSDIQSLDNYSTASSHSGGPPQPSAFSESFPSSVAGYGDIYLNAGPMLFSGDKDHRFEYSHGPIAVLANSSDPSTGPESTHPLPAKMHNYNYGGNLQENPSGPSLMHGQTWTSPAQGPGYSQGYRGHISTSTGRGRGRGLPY
CAMK2A (human), sequence (Q9UQM7 whole entry, looked up): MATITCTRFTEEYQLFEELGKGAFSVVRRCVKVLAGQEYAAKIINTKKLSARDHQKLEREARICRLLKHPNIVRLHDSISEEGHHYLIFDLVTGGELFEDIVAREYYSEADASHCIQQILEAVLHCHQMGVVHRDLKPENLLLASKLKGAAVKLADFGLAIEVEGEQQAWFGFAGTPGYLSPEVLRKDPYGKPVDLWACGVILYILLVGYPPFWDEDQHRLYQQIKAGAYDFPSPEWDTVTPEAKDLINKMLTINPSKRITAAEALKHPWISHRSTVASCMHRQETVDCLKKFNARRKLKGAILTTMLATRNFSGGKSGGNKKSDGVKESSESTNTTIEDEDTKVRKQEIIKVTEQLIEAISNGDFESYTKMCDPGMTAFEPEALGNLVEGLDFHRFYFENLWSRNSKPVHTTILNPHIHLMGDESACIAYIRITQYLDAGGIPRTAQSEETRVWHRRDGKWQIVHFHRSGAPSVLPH
CSNK1A1 (human), sequence (P48729 whole entry, looked up): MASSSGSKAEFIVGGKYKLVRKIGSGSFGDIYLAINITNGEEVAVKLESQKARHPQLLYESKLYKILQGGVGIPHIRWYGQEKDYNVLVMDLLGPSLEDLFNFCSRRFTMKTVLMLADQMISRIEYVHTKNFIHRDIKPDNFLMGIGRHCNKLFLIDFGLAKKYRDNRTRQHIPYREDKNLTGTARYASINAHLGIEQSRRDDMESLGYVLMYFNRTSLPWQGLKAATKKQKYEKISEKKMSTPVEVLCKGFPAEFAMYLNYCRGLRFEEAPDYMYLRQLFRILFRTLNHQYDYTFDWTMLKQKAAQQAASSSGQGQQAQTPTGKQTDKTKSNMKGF

CN1CC[C@H](c2c(O)cc(O)c3c(=O)cc(-c4ccccc4Cl)oc23)[C@H](O)C1
IC50 (AAK1 (human)): > 10 µM
IC50 (ABL2 (human)): > 10 µM
IC50 (CAMK1D (human)): > 10 µM
IC50 (CAMK2A (human)): > 10 µM
IC50 (CAMK2B (human)): 7.68 µM
IC50 (CDK13 (human)): 4.4 µM
IC50 (CSK (human)): > 10 µM
IC50 (CSNK1A1 (human)): 8.41 µM
IC50 (CSNK1G3 (human)): > 10 µM
IC50 (DDR1 (human)): > 10 µM
IC50 (EIF2AK4 KD1 KD2 (human)): > 10 µM
IC50 (FES (human)): > 10 µM
IC50 (HCK (human)): > 10 µM
IC50 (IKBKE (human)): > 10 µM
IC50 (IRAK3 (human)): > 10 µM
IC50 (LIMK1 (human)): > 10 µM
IC50 (LRRK2 (human)): 9.63 µM
IC50 (MAP2K1 (human)): > 10 µM
IC50 (MAP2K5 (human)): 9.71 µM
IC50 (MAP2K6 (human)): > 10 µM
IC50 (MAP3K1 (human)): > 10 µM
IC50 (MAP3K11 (human)): > 10 µM
IC50 (MAP4K1 (human)): > 10 µM
IC50 (MAPK14 (human)): > 10 µM
IC50 (MAPK8 (human)): > 10 µM
IC50 (MARK3 (human)): 3 µM
IC50 (PIK3C2B (human)): > 10 µM
IC50 (PRKAA1 (human)): > 10 µM
IC50 (PRKACB (human)): > 10 µM
IC50 (PRKCD (human)): 1.19 µM
IC50 (PRKD2 (human)): 1.26 µM
IC50 (PRKDC (human)): > 10 µM
IC50 (PTK2 (human)): > 10 µM
IC50 (RIPK2 (human)): > 10 µM
IC50 (RPS6KA3 KD1 KD2 (human)): > 10 µM
IC50 (RPS6KA5 KD1 KD2 (human)): > 10 µM
IC50 (SRC (human)): > 10 µM
IC50 (STK16 (human)): > 10 µM
IC50 (SYK (human)): > 10 µM
IC50 (TESK1 (human)): > 10 µM
IC50 (TGFBR2 (human)): > 10 µM
IC50 (TYK2 JH1 JH2 (human)): 2.48 µM
IC50 (YES1 (human)): > 10 µM
